Patent publication US20220257596A1, “METHODS FOR TREATING MEIBOMIAN GLAND DYSFUNCTION WITH LIVER X RECEPTOR AGONISTS” (Novartis AG, priority 2019, published 2022)

Columns and labels:
[1] = system: SCD1 protein production in SZ95-SCD1-HiBit cells; test: Measurement of SCD1 expression in SZ95-SCD1-HiBit cells (HiBiT assay); assay type: cell-based; details: Homo sapiens; for EC50: SZ95-SCD1-HiBit cells, 48h incubation, top concentration 18 μM; for Emax: percent compared to the reference compound (Compound H), 48h, read-out: HiBit Amax
Experimental: SZ95-SCD1-HiBit cells were seeded in 384-well cell culture white plates at a density of 3000 cells/30 ul. Water is added to edge wells to avoid evaporation. Cells were incubated in a humidified incubator with 5% CO2 at 37° C. overnight. Tested compounds were diluted at a ratio of 1:3 using Agilent BRAVO Automated Liquid Handling Platform and added to cells at final concentrations starting from 18 μM. Compound H was used as a reference compound in each plate. Cells in the assay plate were incubated in a humidified incubator with 5% CO2 at 37° C. for 48h.
The assay plates were removed from the incubator and allowed to equilibrate to room temperature. Nano-Glo® HiBiT Detection Reagent (Promega; a mixture of Nano-Glo HiBiT Detection Buffer, Nano-Glo HiBiT Detection Substrate, and LgBiT protein) was added into assay plates, at a volume equal to cell culture medium in each well. Plates were placed on an orbital shaker at a speed of 300-600 rpm for 10 min at room temperature, and read on an EnVision Plate Reader using luminescence detection with a 1 second read time.
The assay measures the increase in SCD1 protein production in vitro. Amax refers to the percent […] of the tested compound compared to the reference compound.

[2] = system: SZ95 (immortalized human sebaceous gland cells) cells; test: Sentinel lipid assay (desaturation index in SZ95 sebocytes); assay type: cell-based; details: for EC50: SZ95 cells, 72h incubation, top concentration 10 μM, desaturation index, read-out: SLA EC50; for Emax: percent compared to the reference compound (Compound H), 72h, read-out: SLA Amax
Experimental: SZ95 (immortalized human sebaceous gland cells) cells were seeded in Greiner bio-one 96-well polypropylene plates that were pre-treated with 50 μg/ml Human Plasma Fibronectin (Thermo Fisher Scientific) at a density of 10^4 cells/135 μl. Cells were incubated in a humidified incubator with 5% CO2 at 37° C. overnight. Test compounds were diluted at a ratio of 1:3 and added to cells at final concentrations starting from 10 μM. Compound H was used as a positive control reference compound in each plate. Cells in the assay plate were incubated in a humidified incubator with 5% CO2 at 37° C. for 72h.
Culture medium was removed from the cells and cells in culture plates were washed with ice cold phosphate buffered saline three times. Plates were heat sealed and stored in a −80° C. freezer prior to Sentinel lipid assay.
Sentinel lipid assay: The sentinel lipid assay was used quantify the change in the global desaturation index in SZ95 sebocytes upon administration of LXR agonist compounds. The assay measures a smaller subset of lipid analytes in […] (termed “sentinel lipids”) which would model the global changes the population of both saturated and desaturated lipids in the cells. In order to define this smaller subset of lipids, a complete lipid profile was recorded on dose response curves (eight levels from 4 nM to 10 uM) of Compounds A-N. An elastic net regression model was applied separately to both the saturated and desaturated lipids to determine the minimum combination of coefficients and analytes which could be used to adequately model the total population of lipids. The elastic net model was able to reduce the behavior of 425 lipids to 11 lipids and the correlation between the desaturation indices observed using the complete set of lipids with from the 11 sentinel lipids was 0.96.
A medium throughput assay was created using this reduced set of sentinel lipids. A single batch is defined as triplicate examples of three unique plates (i.e., a single batch of cells is used to create nine plates for LC-MSMS analysis). Lipids were extracted from the cells using a 1:1 mixture of methylene chloride/methanol containing 10 nM of deuterated standards of triglycerides, which are used as internal standards for quantitating the lipid abundance. The lipids were separated prior to mass spectrometric analysis using a five minute HPLC gradient. The abundance of the sentinel lipids and the internal standards are measured using multiple reaction monitor mode (MRM) on a triple quadrupole mass spectrometer. The data was transformed from total ion current to nmoles/10^6 cells, which are multiplied by the coefficients from the elastic net model to determine the effective desaturated and saturated content, and therein the desaturation index of the dosed cells. In order to compare compounds from multiple batches with one another, the measure raw desaturation index was normalized by dividing it by the desaturation index of the DMSO dosed cells, and all data was assessed as the fraction by which the compound increases the desaturation index above 1. The Amax value refers to the percent […] of the tested compound compared to the reference compound.

[3] = In vivo measurement of lowered meibum melting temperature (DSC); parameters: species or system Sprague Dawley rats; details: for Change of Tm: compound versus vehicle, rat meibum, DSC (method gives °C); for Mean ± SEM of Compound (meibum melting temperature): naive Sprague Dawley rats, 1% compound, DSC peak temperature (method gives °C), in °C; for Meibum melting temperature, in words: rat eyes, concentration of 1%, in comparison to vehicle
Experimental: For specific compounds Compound B and Compound C, the lowering of rat meibum melting temperature was measured in naive Sprague Dawley rats. The test animals were administered either vehicle or Compound B or Compound C, the meibum collected upon administration of the compounds was analyzed by differential scanning calorimetry to measure the melting point. The lowering of meibum melting point in rats administered Compound B or Compound C were compared to vehicle.
Melting properties of meibum were obtained using differential scanning calorimetry thermograms, recorded on a TA Discovery Q5000 (ThermoAnalytical). Samples were sealed in standard 40 μl aluminum pans and subjected to a heat-cool-heat cycle with melting temperatures being recorded on the second heating ramp. The samples were first heated to 150° C. at 30K/min then cooled −30° C. at 30K/min. Next, the sample was heated to 75° C. with an underlying heating rate of 2K/min, a period of modulation of 60 seconds and a temperature amplitude of modulation of 1° C. Dry N2 gas, at a flow rate of 50 mL/min was used to purge the DSC equipment during the measurement. Onset of melting and peak temperatures were recorded with peak temperature quoted as the melting point.
Results from the assay are shown Table 3 and in FIGS. 1 and 2. Results were analyzed using an unpaired t test with Welch's correction.

[4] = Eyelid pharmacokinetics: compound concentration in rabbit meibomian gland; assay type: in vivo
Experimental: A formulation of 1% Compound G as a suspension in a suitable vehicle was administered to rabbits as follows. Animals were sedated and the eyelashes and hair on both eyes on both lids trimmed as short as possible. Thirty microliters of the 1% Compound G was drawn up into a pipette and carefully pipetted around the entire eyelid of the animal a few millimeters back from the edge of the lid so as to prevent the material from leaking onto the eye itself. Following application, a cotton swab or eye spear was used to gently try and massage the material into the skin. At the appropriate time points, the animals were euthanized and meibomian glands removed and the concentration of the compound in meibomian glands was measured. The experiment was conducted in triplicate and the results below illustrate mean concentration in nM.

Row | EC50 [1] [nM] | Uptake into the meibomian gland ([4]; 1% suspension on eyelid, in words) | concentration at 0.5 h ([4]; meibomian gland, topical, 0.5 h, 30 microliters of 1% suspension applied to eyelid, triplicate) [nM] | concentration at 3 h ([4]; meibomian gland, topical, 3 h, 30 microliters of 1% suspension applied to eyelid, triplicate) [nM] | concentration at 6 h ([4]; meibomian gland, topical, 6 h, 30 microliters of 1% suspension applied to eyelid, triplicate) [nM] | SMILES | Emax [1] [%] | EC50 [2] [nM] | Emax [2] [%] | Change of Tm [3] | Mean ± SEM of Compound (meibum melting temperature) [3] | Meibum melting temperature, in words [3]
1 | 1.8 | – | – | – | – | CC(C)(C)N1C(=O)C(Nc2ccc(N3CCCCC3)cc2)=C(c2ccccc2)S1(=O)=O [Compound B, 2-(tert-butyl)-5-phenyl-4-((4-(piperidin-1-yl)phenyl)amino)isothiazol-3(2H)-one 1,1-dioxide] | 64 | 168 | 92 | −1.534 ± 0.3522 | 29.1 ± 0.2363 | decrease in meibum melting temperature
2 | 111 | sustained for at least six hours | 2630 | 3780 | 1050 | CCOC(=O)Cn1nc(C(F)(F)F)cc1-c1ccc(-c2cccc(S(C)(=O)=O)c2)cc1 [Compound G, ethyl 2-(5-(3′-(methylsulfonyl)-[1,1′-biphenyl]-4-yl)-3-(trifluoromethyl)-1H-pyrazol-1-yl)acetate] | 70.7 | 243 | 98.8 | – | – | –
3 | 4 | – | – | – | – | CC(C)[C@@H]1c2nc3cc(CO)c(S(C)(=O)=O)cc3n2CCN1c1ncc(C(C)(C)O)c(C(F)(F)F)n1 [Compound N, (R)-2-(2-(8-(hydroxymethyl)-1-isopropyl-7-(methylsulfonyl)-3,4-dihydrobenzo[4,5]imidazo[1,2-a]pyrazin-2(1H)-yl)-4-(trifluoromethyl)pyrimidin-5-yl)propan-2-ol] | 72.4 | 52 | 165 | – | – | –

Row | SMILES | EC50 [1] [nM] | Uptake into the meibomian gland ([4]; 1% suspension on eyelid, in words) | concentration at 0.5 h ([4]; meibomian gland, topical, 0.5 h, 30 microliters of 1% suspension applied to eyelid, triplicate) [nM] | concentration at 3 h ([4]; meibomian gland, topical, 3 h, 30 microliters of 1% suspension applied to eyelid, triplicate) [nM] | concentration at 6 h ([4]; meibomian gland, topical, 6 h, 30 microliters of 1% suspension applied to eyelid, triplicate) [nM] | Emax [1] [%] | EC50 [2] [nM] | Emax [2] [%] | Change of Tm [3] | Mean ± SEM of Compound (meibum melting temperature) [3] | Meibum melting temperature, in words [3]
4 | C[C@H](CCOc1cccc(C(C)(C)C(=O)O)c1)N(Cc1cccc(C(F)(F)F)c1Cl)CC(c1ccccc1)c1ccccc1 [Compound C, (R)-2-(3-(3-((2-chloro-3-(trifluoromethyl)benzyl)(2,2-diphenylethyl)amino)butoxy)phenyl)-2-methylpropanoic acid] | 0.9 | – | – | – | – | 69.9 | 5.5 | 90.7 | −1.513 ± 0.6575 | 30.68 ± 0.6065 | decrease in meibum melting temperature
